Results taken from US20040241092A1, “Method for determining alleviation of pain in an animal” (priority 2003, published 2004).

What was measured:
Type in all cases: in vivo
[1] = tested on: (IL-6 plus IL-6sR)-induced arthritic pain in rat; assay: IL6 Rat: dose response alleviation of (IL-6 plus IL-6sR)-induced arthritic pain (Method Example 1); conditions: oral dose of 10 mg/kg or greater (1, 3, 10, 30 mg/kg tested) 1 hour before 100 ng hrIL-6 + 300 ng hrIL-6sR; measured 1 hour post injection
Description: (§1) Animals were fed standard rat chow with water available ad libitum.
(§2) Each data point is the mean of three readings of 5 seconds duration.

[2] = tested on: (IL-6 plus IL-6sR)-induced arthritic pain in rat; assay: IL6 Rat: time course of alleviation of (IL-6 plus IL-6sR)-induced arthritic pain (Method Example 2); conditions: 10 mg/kg oral 1 hour before 100 ng hrIL-6 + 300 ng hrIL-6sR; Time 1 and 3 hours post injection
Description: as §1, §2

rat knee joint [3] = assay: (IL-6)-, (IL-6sR)-, (IL-6 plus IL-6sR)- and (heat inactivated IL-6 plus IL-6sR)-induced joint pain (Demonstration Example 3); conditions: intra-articular in 50 μL PBS, 1 hour post injection
Procedure: (§3) It should be appreciated that in all of the below examples, unless indicated otherwise, male Wistar rats (175-200 g) were housed in solid bottom isolator cages, 2-4 rats per cage, with corncob bedding on a 12 hour:12 hour light:dark cycle. Animals were fed standard rat chow with water available ad libitum.
It should be appreciated that in all of the below examples, hind paw weight bearing differentials between the paw of the limb having the control joint (in animals administered test compound vehicle only) and the paw of the limb having the contralateral test joint (in control or inducement animals administered test compound vehicle only and in treatment animals administered test compound dissolved in test compound vehicle) were determined using an incapacitance tester, model 2KG (Linton Instrumentation, Norfolk, United Kingdom). […] Each data point is the mean of three readings of 5 seconds duration. The hind paw weight bearing differentials were expressed in grams and calculated as the [sum of (the weight in grams placed on the control limb minus the weight in grams placed on the contralateral test limb for each animal in the inducement or treatment animal group)] divided by the number of animals in the inducement or treatment animal group. […]

rat knee joint [4] = assay: (IL-6)-induced joint pain, hind paw weight bearing differential (Demonstration Example 1); conditions: for change in hind paw weight differential compared to the vehicle control group: male Wistar rats
Procedure: as §3
It should be appreciated that in all of the below examples, hind paw weight bearing differentials between the paw of the limb having the control joint (in animals administered test compound vehicle only) and the paw of the limb having the contralateral test joint (in control or inducement animals administered test compound vehicle only and in treatment animals administered test compound dissolved in test compound vehicle) were determined using an incapacitance tester, model 2KG (Linton Instrumentation, Norfolk, United Kingdom). The incapacitance tester has a chamber on top with an outwardly sloping front wall that supports a rat's front limbs, and two weight sensing pads, one for each hind paw, that facilitates this determination. Each data point is the mean of three readings of 5 seconds duration. The hind paw weight bearing differentials were expressed in grams and calculated as the [sum of (the weight in grams placed on the control limb minus the weight in grams placed on the contralateral test limb for each animal in the inducement or treatment animal group)] divided by the number of animals in the inducement or treatment animal group. […] All results were statistically analyzed by comparing the average results for an induction or treatment group with the average result for its control group at the same time point using analysis of covariance (“ANCOVA”) followed by the Hochberg's procedure and those with statistical significance had ρ<0.05 unless otherwise noted.
It should also be appreciated that the IL-6 and IL-6sR used as described in all of the below examples was the commercially available recombinant human IL-6 and recombinant human IL-6sR purchased from R&D Systems, Minneapolis, Minn.
It should also be appreciated that prior to injection of hrIL-6, hrIL-6sR, or hrIL-6 plus hrIL-6sR in all of the below examples, rats were anesthetized with 5% volume/volume (“v/v”) isoflurane gas until knocked down and maintained with 2% v/v isoflurane. Rats became fully conscious about 5 minutes after isoflurane administration was discontinued.
Hind-paw weight differentials between the right joint and the left joint of male Wistar rats (150 g) were determined for 30 rats with the incapacitance tester. Rats were then randomly divided into five groups of 6 rats each, a control group and four inducement groups. Rats were anesthetized with 5% v/v isoflurane gas until knocked down and maintained with 2% v/v isoflurane gas. At Time 0, each rat was injected with 50 μL of PBS into a control knee. In addition, each rat in the control group was injected with 50 μL of PBS into the contralateral test knee and each rat in each of the four inducement groups was injected with 50 μL of PBS containing 10 ng, 30 ng, 100 ng, or 300 ng, respectively, of hrIL-6. The injections were done through the patellar ligament into the knee joint space. The isoflurane gas was discontinued. At Times 1, 3, and 6 hours, pain in each rat was characterized by measuring hind paw weight bearing differentials with the incapacitance tester, and the results were statistically analyzed.

For `CS(=O)(=O)c1ccc(C2=C(c3ccccc3)C(=O)OC2)cc1` [rofecoxib], the “percent inhibition of a change in hind paw weight distribution, compared to test compound vehicle alone” value [1] was “inhibit pain in a statistically significant manner” and the “change in hind paw weight distribution (pain) compared to test compound vehicle alone” value [2] was “reduced pain in a statistically significant manner”.

With “hrIL-6: commercially available recombinant human IL-6 purchased from R&D Systems” the “induction of pain in the joint (hind paw weight distribution)” value (rat knee joint [3]; 100 ng alone) was “will induce pain”, the “change in hind paw weight differential compared to the vehicle control group” value (“change in hind paw weight differential” below) (rat knee joint [4]; 10 ng intra-articular in 50 μL PBS, 1, 3, or 6 hours post injection) was “did not produce a statistically significant change” and the “change in hind paw weight differential” value (rat knee joint [4]; 30 ng intra-articular in 50 μL PBS, 1 and 3 hours post injection) was “statistically significant change”. For the same molecule, the “change in hind paw weight differential” value (rat knee joint [4]; 30 ng intra-articular in 50 μL PBS, 6 hours post injection) was “non-significant”, the “change in hind paw weight differential” value (rat knee joint [4]; 100 ng intra-articular in 50 μL PBS, 1, 3, and 6 hours post injection) was “statistically significant change” and the “change in hind paw weight differential” value (rat knee joint [4]; 300 ng intra-articular in 50 μL PBS, 1, 3, and 6 hours post injection) was “statistically significant change”. The “amount that will induce pain in the joint on intra-articular injection” value (rat knee joint [4]; hrIL-6 only, rat knee joint) was “more than 10 ng”.

B1: hrIL-6sR: commercially available recombinant human IL-6sR (interleukin-6 soluble receptor) purchased from R&D Systems (protein, UniProt P08887 20-365, looked up)
extracellular domain: LAPRRCPAQEVARGVLTSLPGDSVTLTCPGVEPEDNATVHWVLRKPAAGSHPSRWAGMGRRLLLRSVQLHDSGNYSCYRAGRPAGTVHLLVDVPPEEPQLSCFRKSPLSNVVCEWGPRSTPSLTTKAVLLVRKFQNSPAEDFQEPCQYSQESQKFSCQLAVPEGDSSFYIVSMCVASSVGSKFSKTQTFQGCGILQPDPPANITVTAVARNPRWLSVTWQDPHSWNSSFYRLRFELRYRAERSKTFTTWMVKDLQHHCVIHDAWSGLRHVVQLRAQEEFGQGEWSEWSPEAMGTPWTESRSPPAENEVSTPMQALTTNKDDDNILFRDSANATSLPVQDSSSVPLP
modifications: extracellular domain
notes: commercially available recombinant human IL-6sR (interleukin-6 soluble receptor) purchased from R&D Systems
B1 was tested, and the “induction of pain in the joint (hind paw weight distribution)” value (rat knee joint [3]; 300 ng alone) was “will induce pain”.
